Results taken from US20130343993A1, “RADIOLABELED 5-HT6 LIGANDS” (AbbVie Inc., priority 2012, published 2013).
Like-named read-outs stand apart in the source and are kept apart here.

Tests used:
h-5-HT6 receptor = biological target: T1, h-5-HT6 receptor (Homo sapiens, UniProt P50406); assay: 5-HT6 receptor binding assay ([3H]-LSD displacement, HEK293 membranes)
T1 construct: expressed in transfected cells
Protocol: The cells were collected by centrifugation at 500 g for 10 min. at 4° C., washed with PBS and centrifuged (500 g, 10 min. 4° C.). The pellets were stored at −80° C. until use. For membrane preparation, the thawed cell pellet was resuspended in ice-cold sucrose buffer (0.25 M sucrose, 10 mM Hepes (pH 7.4), 1 mM Phenylmethylsulfonyl fluoride (PMSF) in DMSO, […] Pepstatin-A, 3 mM EDTA, 0.025% Bacitracin) and homogenized with a Branson Sonifier W-250 (Settings: Timer 4; Output Control 3; Duty Cycle constant; 2 to 3 cycles). Cell disruption was checked with the aid of a microscope. Remaining unbroken cells were pelleted at 1,000 g for 10 min. at 4° C. […] Protein concentration was determined (BCA-Kit; Pierce) and aliquots stored at −80° C. or in liquid nitrogen for long-term storage.
(§1) All receptor binding experiments were carried out in the corresponding assay buffer in a total volume of 200 μl in the presence of various concentrations of test compound (10^−5 M to 10^−9 M, tenfold serial dilution, duplicate determinations). […] Radioactivity was measured in a Microbeta Trilux two hours after the addition of the scintillation mixture. […]
Data derived from liquid scintillation counting were analyzed by iterative non-linear regression analysis with the use of the Statistical Analysis System (SAS): a program similar to “LIGAND” as described by Munson and Rodbard (Anal. Biochem. 1980, 107, 220-239). […]

Rat 5-HT6 = Rat 5-HT6 (Rattus norvegicus, UniProt P31388); assay: Rat 5-HT6 binding
h-5-HT2A receptor = biological target: T2, h-5-HT2A receptor (Homo sapiens, UniProt P28223); assay: 5-HT2A receptor binding assay ([125I]-DOI displacement, CHO-K1 membranes); conditions: for Selectivity for 5-HT6 v. 5-HT2A: ratio of human 5-HT2A Ki to human 5-HT6 Ki
T2 construct: purchased Perkin Elmer ES-313-M400UA; host or cells: CHO-K1
Protocol: Cells from stable clonal cell lines expressing the corresponding receptor (5-HT6, 5-HT2A or 5-HT2B receptors) were washed with PBS with 0.02% EDTA. The cells were collected by centrifugation at 500 g for 10 min. at 4° C., washed with PBS and centrifuged (500 g, 10 min. 4° C.). The pellets were stored at −80° C. until use. For membrane preparation, the thawed cell pellet was resuspended in ice-cold sucrose buffer (0.25 M sucrose, 10 mM Hepes (pH 7.4), 1 mM Phenylmethylsulfonyl fluoride (PMSF) in DMSO, […] Pepstatin-A, 3 mM EDTA, 0.025% Bacitracin) and homogenized with a Branson Sonifier W-250 (Settings: Timer 4; Output Control 3; Duty Cycle constant; 2 to 3 cycles). Cell disruption was checked with the aid of a microscope. Remaining unbroken cells were pelleted at 1,000 g for 10 min. at 4° C. The sucrose buffer supernatant was then centrifuged at 60,000 g for 1 h at 4° C. (Beckman Ultrazentrifuge XL 80). The pellet was resuspended in 30 ml ice-cold Tris buffer (20 mM TRIS (pH 7.4), […] Pepstatin A, 0.1 mM PMSF, 3 mM EDTA) by pipetting through a 10 ml serological pipet and centrifuged for 1 h at 4° C. at 60,000 g. A final resuspension was performed in a small volume of ice-cold Tris buffer (see above) by pressing through a serological pipet followed by ultrasonic treatment with a Branson Sonifier W-250 (Settings: Timer 1; Output Control 3; Duty Cycle constant; 1 cycle). Protein concentration was determined (BCA-Kit; Pierce) and aliquots stored at −80° C. or in liquid nitrogen for long-term storage.
All receptor binding experiments were carried out in the corresponding assay buffer in a total volume of 200 μl in the presence of various concentrations of test compound (10^−5 M to 10^−9 M, tenfold serial dilution, duplicate determinations). The assays were terminated by filtration on polyethylenimine (PEI 0.1% or 0.3%) presoaked Packard Unifilter Plates (GF/C or GF/B) with a Tomtec MachIII U 96well-plate harvester. After the plates had been dried for 2 h at 55° C. in a drying chamber scintillation cocktail (BetaPlate Scint; PerkinElmer) was added. Radioactivity was measured in a Microbeta Trilux two hours after the addition of the scintillation mixture. Data derived from liquid scintillation counting were analyzed by iterative non-linear regression analysis with the use of the Statistical Analysis System (SAS): a program similar to “LIGAND” as described by Munson and Rodbard (Analytical Biochemistry 107, 220-239 (1980).
CHO-K1 cell membranes expressing h-5-HT2A receptor (Perkin Elmer ES-313-M400UA) were thawed, diluted in assay buffer (50 mM Tris-HCl, 5 mM MgCl2, 1 mM EGTA, pH 7.4) to a final membrane protein concentration of 25 μg/ml and homogenized by gentle vortexing. For the competition binding studies; 20 μl of varying concentrations of test compounds in assay buffer (or 20 μl of assay buffer), 80 μl of 0.1 nM [^125I]—R—O-DOI (2,5-dimethoxy-4-iodo-amphetamine) (Perkin Elmer NEX-255) were incubated with 100 μl of homogenized membranes (total volume 200 μl). Non-specific binding was determined in the presence of 10 μM (±)-DOI (Sigma D-101). After a 1 hr incubation at room temperature, the binding reaction was harvested (Tomtec Mach III U Harvester) through 96-well GF/C filter plates (Perkin Elmer) presoaked for 1 hr with 20 μl per well of 0.3% polyethylene-imine (PEI). Harvested plates were washed twice with ice-cold assay buffer and dried prior to addition of 35 μl scintillator (BetaplateScint, Perkin Elmer). The radioactivity was determined by liquid scintillation spectrometry in a MicroBeta (Perkin Elmer) plate counter.
Data derived from liquid scintillation counting were analyzed by iterative non-linear regression analysis with the use of the Statistical Analysis System (SAS): a program similar to “LIGAND” as described by Munson and Rodbard (Anal. Biochem. 1980, 107, 220-239). Fitting was performed according to formulae described by Feldman (Anal. Biochem. 1972, 48, 317-338). […]

Rat microsome stability = type: in vitro ADME; conditions: rat microsomes, read-out: Rat microsome T1/2
[1] = Rat PK (0.05 mg/kg, iv), plasma and brain levels; type: in vivo; conditions: for Free B/P Ratio: free brain concentration divided by free plasma concentration
[2] = biological target: 78 targets (CEREP) other than the 5-HT6 receptor; assay: CEREP panel of 78 targets; type: binding; conditions: all but the 5-HT2B and 5-HT2A receptors, read-out: Ki at ancillary targets
h-5-HT2B receptor = biological target: T3, h-5-HT2B receptor (Homo sapiens, UniProt P41595); assay: 5-HT2B receptor binding assay ([125I]-DOI displacement, CHO-K1 membranes)
T3 construct: purchased Perkin Elmer ES-314-M400UA; host or cells: CHO-K1
Protocol: Cells from stable clonal cell lines expressing the corresponding receptor (5-HT6, 5-HT2A or 5-HT2B receptors) were washed with PBS with 0.02% EDTA. The cells were collected by centrifugation at 500 g for 10 min. at 4° C., washed with PBS and centrifuged (500 g, 10 min. 4° C.). The pellets were stored at −80° C. until use. For membrane preparation, the thawed cell pellet was resuspended in ice-cold sucrose buffer (0.25 M sucrose, 10 mM Hepes (pH 7.4), 1 mM Phenylmethylsulfonyl fluoride (PMSF) in DMSO, […] Pepstatin-A, 3 mM EDTA, 0.025% Bacitracin) and homogenized with a Branson Sonifier W-250 (Settings: Timer 4; Output Control 3; Duty Cycle constant; 2 to 3 cycles). Cell disruption was checked with the aid of a microscope. Remaining unbroken cells were pelleted at 1,000 g for 10 min. at 4° C. The sucrose buffer supernatant was then centrifuged at 60,000 g for 1 h at 4° C. (Beckman Ultrazentrifuge XL 80). […] Protein concentration was determined (BCA-Kit; Pierce) and aliquots stored at −80° C. or in liquid nitrogen for long-term storage.
as §1

5-HT2a = 5-HT2a (Homo sapiens, UniProt P28223); conditions: background statement on the known PET ligand; cited from earlier work
Sequence of 5-HT2a (P28223 whole entry): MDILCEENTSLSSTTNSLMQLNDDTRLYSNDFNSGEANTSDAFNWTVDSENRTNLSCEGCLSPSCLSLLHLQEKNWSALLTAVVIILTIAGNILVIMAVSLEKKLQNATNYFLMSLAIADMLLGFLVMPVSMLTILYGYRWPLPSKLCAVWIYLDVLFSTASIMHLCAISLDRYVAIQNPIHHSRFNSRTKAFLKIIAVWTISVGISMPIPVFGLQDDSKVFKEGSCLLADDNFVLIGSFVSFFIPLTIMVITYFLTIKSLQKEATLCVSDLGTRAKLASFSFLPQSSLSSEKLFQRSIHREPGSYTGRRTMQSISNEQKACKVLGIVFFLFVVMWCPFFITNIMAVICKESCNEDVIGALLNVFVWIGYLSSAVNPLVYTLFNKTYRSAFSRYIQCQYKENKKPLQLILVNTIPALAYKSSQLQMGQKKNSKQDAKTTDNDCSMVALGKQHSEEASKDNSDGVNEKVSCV

T2 sequence (P28223 whole entry): as above
T3 sequence (P41595 whole entry): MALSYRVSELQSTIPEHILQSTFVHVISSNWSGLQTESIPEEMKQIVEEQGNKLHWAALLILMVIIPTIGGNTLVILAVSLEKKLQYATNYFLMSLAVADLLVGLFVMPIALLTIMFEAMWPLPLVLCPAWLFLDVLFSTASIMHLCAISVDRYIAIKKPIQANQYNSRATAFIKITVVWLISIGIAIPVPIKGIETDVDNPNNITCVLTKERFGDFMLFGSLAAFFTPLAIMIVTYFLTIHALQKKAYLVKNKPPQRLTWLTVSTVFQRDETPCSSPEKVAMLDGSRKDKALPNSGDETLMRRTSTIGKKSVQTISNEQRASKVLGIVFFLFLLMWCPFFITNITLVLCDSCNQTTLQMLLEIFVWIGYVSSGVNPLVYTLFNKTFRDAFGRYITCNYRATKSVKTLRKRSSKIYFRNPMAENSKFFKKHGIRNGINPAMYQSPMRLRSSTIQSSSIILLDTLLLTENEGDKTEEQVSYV
T1 sequence (P50406 whole entry): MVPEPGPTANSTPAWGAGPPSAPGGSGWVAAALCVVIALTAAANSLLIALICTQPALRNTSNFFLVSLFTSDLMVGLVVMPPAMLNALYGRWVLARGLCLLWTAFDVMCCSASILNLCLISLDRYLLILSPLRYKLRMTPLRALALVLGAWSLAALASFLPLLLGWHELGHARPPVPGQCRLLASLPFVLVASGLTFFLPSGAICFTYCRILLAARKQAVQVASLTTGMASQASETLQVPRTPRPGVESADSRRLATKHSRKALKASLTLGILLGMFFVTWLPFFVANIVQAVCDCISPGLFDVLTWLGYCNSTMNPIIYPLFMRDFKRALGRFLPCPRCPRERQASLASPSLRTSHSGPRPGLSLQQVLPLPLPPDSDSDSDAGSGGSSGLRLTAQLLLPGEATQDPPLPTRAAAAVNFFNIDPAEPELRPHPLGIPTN
Sequence of Rat 5-HT6 (P31388 whole entry): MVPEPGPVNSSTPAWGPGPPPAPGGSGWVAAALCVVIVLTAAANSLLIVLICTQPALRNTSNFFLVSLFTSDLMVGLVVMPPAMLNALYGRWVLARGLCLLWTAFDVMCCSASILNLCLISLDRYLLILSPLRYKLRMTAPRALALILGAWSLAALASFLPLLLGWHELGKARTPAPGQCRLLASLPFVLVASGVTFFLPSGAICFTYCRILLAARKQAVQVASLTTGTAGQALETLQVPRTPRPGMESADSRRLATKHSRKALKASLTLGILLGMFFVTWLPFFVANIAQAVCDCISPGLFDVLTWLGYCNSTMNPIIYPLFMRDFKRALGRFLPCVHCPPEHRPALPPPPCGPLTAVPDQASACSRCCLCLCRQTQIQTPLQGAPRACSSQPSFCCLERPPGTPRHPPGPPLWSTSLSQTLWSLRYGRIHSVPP

CN1CCN(c2cccc3cc(S(=O)(=O)c4cccc(F)c4)cnc23)CC1 [GSK-215083, reference compound]
Ki (h-5-HT6 receptor): 0.34 nM
Ki (Rat 5-HT6): 0.16 nM
Ki (h-5-HT2A receptor): 0.395 nM
selectivity for 5-HT6 over 5-HT2A (h-5-HT2A receptor): 1.16 fold
Selectivity for 5-HT6 v. 5-HT2A (h-5-HT2A receptor): 1.16 x
half-life (Rat microsome stability): 1.04 h

CN1CCC(c2cccc3cc(S(=O)(=O)c4ccccn4)cnc23)CC1 [Example 1, 8-(1-methylpiperidin-4-yl)-3-(pyridin-2-ylsulfonyl)quinoline]
Ki (h-5-HT6 receptor): 0.22 nM
Ki (h-5-HT2A receptor): 123 nM
selectivity for 5-HT6 over 5-HT2A (h-5-HT2A receptor): 559 fold
Selectivity for 5-HT6 v. 5-HT2A (h-5-HT2A receptor): 559 x
Free [brain] ([1]; 3 min after dose): 21.5 ng/g
Plasma Conc. ([1]; 3 min after dose): 104.5 ng/mL
Free B/P Ratio ([1]; 3 min after dose): 0.21
Free [brain] ([1]; 5 min after dose): 23.1 ng/g
Plasma Conc. ([1]; 5 min after dose): 83.5 ng/mL
Free B/P Ratio ([1]; 5 min after dose): 0.28
Ki [2]: > 1000 nM
half-life (Rat microsome stability): 1.73 h
Ki (h-5-HT2B receptor): 144 nM
selectivity for 5-HT6 over 5-HT2B (h-5-HT2B receptor): 654.5 fold

[3H]C([3H])([3H])N1CCC(c2cccc3cc(S(=O)(=O)c4ccccn4)cnc23)CC1 [Example 2, 8-(1-([^3H]methyl)piperidin-4-yl)-3-(pyridin-2-ylsulfonyl)quinoline]
F. Cortex/Cer. (5 min after dose): 0.9
Hippo./Cer. (5 min after dose): 1.06
Striatum/Cer. (5 min after dose): 0.81
F. Cortex/Cer. (40 min after dose): 1.20
Hippo./Cer. (40 min after dose): 1.07
Striatum/Cer. (40 min after dose): 1.31

CN1CCN(c2cccc3cc(S(=O)(=O)c4cccc(F)c4)cnc23)CC1 [[^11C]GSK-215083]
Ki (5-HT2a): 0.395 nM
